The target in one assay is DPB1*02:01. The assay can be described thus: Peptide binding to HLA-DP allele, competition assay. Details: species or system human. The text has this: (§1) Peptide binding to MHC-II requires anchor residues in certain positions and thus can be predicted using computer algorithms. Affinity can be measured experimentally using a competition assay (1). Both are excellent screening tools. However, affinity must be measured separately for each MHC-II allele. Humans express molecules encoded in four different MHC-II loci, denominated HLA-DRB1, DRB3/4/5, DP and DQ. Allelic variation is large, and most people are heterozygous at each locus, thus expressing up to 8 relevant MHC-II alleles. CD4 T cell responses strictly require that the antigenic peptide binds to the relevant MHC-II.
(§2) To identify peptides that could potentially be used in human patients, 30 peptides were screened for binding to 26 HLA alleles by competition assay.

A further assay concerns the target DPB1*03:01. The description is as above. Set-up: species or system human.
From the text: as §1, §2

The next assay addresses DPB1*04:02. Described as above. Details: species or system human.
From the text: as §1, §2

The next assay has as its target DPB1*05:01. The assay is described as above. Details: species or system human.
From the text: as §1, §2

Another assay concerns the target DPB1*14:01. Described as above. Set-up: species or system human.
From the text: as §1, §2

The target in a further assay is T1, DPB1*04:01 (Homo sapiens, UniProt P04440).
T1 sequence (P04440 30-258): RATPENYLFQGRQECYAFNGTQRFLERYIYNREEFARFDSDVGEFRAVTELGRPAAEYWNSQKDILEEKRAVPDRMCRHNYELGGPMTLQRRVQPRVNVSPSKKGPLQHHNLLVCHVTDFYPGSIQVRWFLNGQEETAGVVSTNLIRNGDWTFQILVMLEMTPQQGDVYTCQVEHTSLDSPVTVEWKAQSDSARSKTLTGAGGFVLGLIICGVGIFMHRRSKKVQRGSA
T1 sequence (P20036 29-260 partner): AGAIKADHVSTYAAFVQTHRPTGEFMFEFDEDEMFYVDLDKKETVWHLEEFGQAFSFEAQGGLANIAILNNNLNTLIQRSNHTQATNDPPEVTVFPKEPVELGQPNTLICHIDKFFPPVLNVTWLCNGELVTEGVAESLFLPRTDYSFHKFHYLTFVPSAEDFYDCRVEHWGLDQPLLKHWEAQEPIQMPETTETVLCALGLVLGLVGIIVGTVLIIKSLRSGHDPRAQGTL
The assay is described as above.
From the text: as §1, §2

In a further assay the target is DQB1*05:01. Put plainly: Peptide binding to HLA-DQ allele, competition assay. Set-up: species or system human.
From the text: as §1, §2

The next assay has as its target DQB1*06:02. The description is as above. Set-up: species or system human.
From the text: as §1, §2

In a further assay the target is DRB1*04:01 (Homo sapiens, UniProt P01903+P01911, A100K/A169T/F76Y/I96L/K127E/L162R/M171V/N62H/P40V/Q125Y/R42H/S133A/S149N/S66Y/V115G/V209L/W38E). The assay can be described thus: Peptide binding to HLA-DR allele, competition assay.
From the text: as §1, §2

Another assay has as its target DRB1*09:01 (Homo sapiens, UniProt P01903+P01911, A100R/A103E/D57H/D86V/F55Y/F60I/F76Y/I96F/K127E/L162R/M171V/P40D/Q125H/Q99R/R33Q/R42F/S133A/S66N/T210M/V115G/W38K/Y107V/Y59G/Y89S). Described as above.
From the text: as §1, §2

The target in the next assay is DRB4*01:01 (Homo sapiens, UniProt P01903+P13762, G164S). The description is as above.
From the text: as §1, §2

The target of a further assay is DRB3*02:02 (Homo sapiens, UniProt P01903+P79483, A212P/D57E/F66Y/L67A/R103Q/R218S/R40L/S89Y/T80R/V86D/Y55F/Y59H). The assay is described as above.
From the text: as §1, §2

The target in another assay is DRB1*15:01 (Homo sapiens, UniProt P01903+P01911). The description is as above.
From the text: as §1, §2

For the next assay, the target named is DRB5*01:01 (Homo sapiens, UniProt P01903+Q30154). The description is as above.
From the text: as §1, §2

The target of another assay is HLA-DRB1*01:01 (Homo sapiens, UniProt P01903+P01911, A100R/D57E/F55L/F60I/F76Y/I96L/L162R/M171V/P40L/Q125E/R42F/V115G/Y59C). The description is as above.
From the text: as §1, §2

Another assay concerns the target DRB1*11:01 (Homo sapiens, UniProt P01903+P01911, A100R/A169T/A87E/I96F/K41T/L162R/M171V/P40S/Q125H/Q178H/Q39Y/Q99D/R42S/S66Y/T262R/V115G/W38E). Described as above.
From the text: as §1, §2

The target of a further assay is DRB1*13:02 (Homo sapiens, UniProt P01903+P01911, A100E/A169T/K41T/L162R/M171V/P40S/Q125H/Q178H/Q39Y/Q99D/R42S/S66N/T262R/V115G/W38E/Y61H). The description is as above.
From the text: as §1, §2

In another assay the test system is atherosclerotic plaque. Put plainly: Peptide immunization in atherosclerosis model (ApoE−/− mice on western diet). Type of assay: in vivo, mouse. To be noted: immunization in CFA and 4×IFA.

In general, IC50 refers to the midpoint of a concentration-inhibition curve. High values mean weaker potency in that assay, low ones greater potency in that assay. Regarding `CSCC[C@H](NC(=O)[C@H](CC(C)C)NC(=O)[C@H](Cc1ccc(O)cc1)NC(=O)[C@H](C)NC(=O)[C@H](C)NC(=O)[C@H](CC(C)C)NC(=O)[C@H](CCCNC(=N)N)NC(=O)[C@H](CCCCN)NC(=O)[C@@H](N)CC(=O)O)C(=O)N[C@@H](CC(C)C)C(=O)N[C@@H](CCSC)C(=O)N[C@@H](CCCNC(=N)N)C(=O)N[C@@H](CO)C(=O)N1CCC[C@H]1C(=O)N[C@@H](CO)C(=O)O` [Peptide 3563.0004], the IC50 was found to be 1680 nM at DPB1*02:01; 26 nM at DPB1*03:01; 23 nM at DPB1*04:02; 4.1 nM at DPB1*05:01; 102 nM on DPB1*14:01; 372 nM on DPB1*04:01. The IC50 at DQB1*05:01 worked out at 53 nM; at DQB1*06:02, 13 nM; on DRB1*04:01 it was 7.1 nM; at DRB1*09:01 it was 74 nM; at DRB4*01:01 it was 12 nM.
With `CC[C@H](C)[C@H](NC(=O)[C@H](CC(C)C)NC(=O)[C@H](CCCCN)NC(=O)[C@H](CO)NC(=O)CNC(=O)[C@@H](N)C(C)C)C(=O)N[C@H](C(=O)N[C@@H](C)C(=O)N[C@@H](CCSC)C(=O)N[C@@H](CO)C(=O)N[C@@H](CO)C(=O)N[C@@H](Cc1c[nH]c2ccccc12)C(=O)N[C@@H](CC(C)C)C(=O)N[C@@H](CCC(N)=O)C(=O)N[C@@H](CCCCN)C(=O)O)C(C)C` [Peptide 3563.0008], the concentration for half-maximal inhibition (IC50) worked out at 128 nM at DPB1*02:01; 1860 nM at DPB1*14:01; 89 nM at DPB1*04:01; 617 nM at DQB1*06:02; 110 nM at DRB3*02:02.
With `CC[C@H](C)[C@H](N)C(=O)N[C@@H](CCCCN)C(=O)N[C@@H](Cc1c[nH]cn1)C(=O)N[C@H](C(=O)N[C@@H](Cc1ccc(O)cc1)C(=O)N[C@@H](C)C(=O)N[C@H](C(=O)N[C@@H](CO)C(=O)N[C@@H](CO)C(=O)N[C@@H](C)C(=O)N[C@@H](C)C(=O)N[C@@H](CC(C)C)C(=O)N[C@@H](CO)C(=O)N[C@@H](C)C(=O)N[C@@H](CO)C(=O)O)[C@@H](C)CC)[C@@H](C)CC` [Peptide 3563.0009], the IC50 turned out to be 90 nM on DPB1*03:01; 132 nM on DPB1*14:01; 66 nM at DQB1*06:02; 1.1 nM at DRB1*15:01; 18 nM at DRB5*01:01.
Take `CSCC[C@H](NC(=O)[C@@H](NC(=O)[C@H](Cc1ccccc1)NC(=O)[C@@H]1CCCN1C(=O)[C@H](C)NC(=O)[C@H](CCSC)NC(=O)[C@@H](NC(=O)[C@H](CO)NC(=O)[C@H](CCCNC(=N)N)NC(=O)[C@H](Cc1ccccc1)NC(=O)[C@@H](NC(=O)[C@H](CC(N)=O)NC(=O)[C@H](CO)NC(=O)[C@H](Cc1ccccc1)NC(=O)[C@@H](N)Cc1c[nH]cn1)C(C)C)C(C)C)[C@@H](C)O)C(=O)O` [Peptide 3563.0010]: the IC50 turned out to be 8 nM on DPB1*03:01, 94 nM at DPB1*05:01, 799 nM on DPB1*14:01 and 5570 nM at DQB1*05:01.
Regarding `CC(C)C[C@H](NC(=O)[C@H](CCC(N)=O)NC(=O)[C@H](C)NC(=O)[C@H](CC(N)=O)NC(=O)[C@H](C)NC(=O)[C@H](CCC(N)=O)NC(=O)[C@H](Cc1ccccc1)NC(=O)[C@H](CC(=O)O)NC(=O)[C@H](Cc1ccccc1)NC(=O)[C@H](CC(N)=O)NC(=O)[C@H](CC(C)C)NC(=O)[C@@H](NC(=O)[C@H](CCC(=O)O)NC(=O)[C@@H](N)CC(C)C)C(C)C)C(=O)N[C@@H](CO)C(=O)O` [Peptide 3563.0017], the IC50 at DPB1*02:01 was determined as 86 nM; at DPB1*04:02 it was 586 nM; at DPB1*05:01 it was 39400 nM; on DPB1*04:01, 191 nM; at DRB1*04:01, 55 nM; at DRB4*01:01, 94 nM. The molecule further gave an IC50 on HLA-DRB1*01:01 of 46 nM.
As to `CC[C@H](C)[C@H](NC(=O)[C@H](CCCCN)NC(=O)CN)C(=O)N[C@@H](CC(=O)O)C(=O)N[C@@H](Cc1ccccc1)C(=O)N[C@@H](CC(C)C)C(=O)N[C@@H](CC(N)=O)C(=O)N[C@@H](CC(N)=O)C(=O)N[C@@H](Cc1ccc(O)cc1)C(=O)N[C@@H](C)C(=O)N[C@@H](CC(C)C)C(=O)N[C@@H](Cc1ccccc1)C(=O)N[C@@H](CC(C)C)C(=O)N[C@@H](CO)C(=O)N1CCC[C@H]1C(=O)O` [Peptide 3563.0019], the IC50 turned out to be 456 nM on DPB1*02:01; 424 nM on DPB1*05:01; 6510 nM at DPB1*14:01; 495 nM on DQB1*06:02; 57 nM at DRB5*01:01.
Turning to `CC(C)C[C@H](NC(=O)CNC(=O)[C@@H](N)CCCNC(=N)N)C(=O)N[C@@H](CCCCN)C(=O)N[C@@H](CC(C)C)C(=O)N[C@@H](C)C(=O)N[C@H](C(=O)N[C@@H](C)C(=O)N[C@@H](CC(C)C)C(=O)N[C@@H](CO)C(=O)N[C@@H](CC(C)C)C(=O)N[C@@H](CO)C(=O)N[C@@H](CC(N)=O)C(=O)N[C@@H](CCCCN)C(=O)N[C@@H](Cc1ccccc1)C(=O)O)[C@@H](C)O` [Peptide 3563.0020], the 50% inhibitory concentration (IC50) was found to be 9.8 nM at DPB1*05:01; 183 nM on DPB1*14:01; 2630 nM at DQB1*05:01; 245 nM on DQB1*06:02; 17 nM at DRB1*09:01; 1200 nM on DRB1*11:01. For the same molecule, the IC50 at DRB1*13:02 is 1.1 nM; on HLA-DRB1*01:01, 7.1 nM.
`CC[C@H](C)[C@H](NC(=O)[C@H](CC(N)=O)NC(=O)[C@H](CCCCN)NC(=O)[C@H](CC(C)C)NC(=O)[C@H](Cc1ccccc1)NC(=O)[C@H](CCCNC(=N)N)NC(=O)[C@H](CC(C)C)NC(=O)[C@H](Cc1c[nH]cn1)NC(=O)CNC(=O)[C@@H](N)CCC(=O)O)C(=O)N[C@H](C(=O)N[C@@H](CC(C)C)C(=O)N1CCC[C@H]1C(=O)N[C@H](C(=O)N[C@@H](Cc1ccc(O)cc1)C(=O)O)C(C)C)[C@@H](C)CC` [Peptide 3563.0021]: the IC50 at DPB1*02:01 worked out at 61 nM; on DPB1*05:01, 4610 nM; at DPB1*14:01, 2070 nM; at DQB1*06:02, 6140 nM; on DRB3*02:02 it was 3.3 nM; on DRB4*01:01, 3.3 nM.
Turning to `CC[C@H](C)[C@H](NC(=O)[C@H](CC(C)C)NC(=O)[C@H](CO)NC(=O)[C@@H](NC(=O)[C@@H](NC(=O)[C@@H](N)CCCCN)[C@@H](C)CC)C(C)C)C(=O)N[C@@H](CCCCN)C(=O)N[C@@H](CC(N)=O)C(=O)N[C@@H](CC(C)C)C(=O)N[C@@H](CC(C)C)C(=O)N[C@H](C(=O)N[C@@H](C)C(=O)N[C@@H](CC(C)C)C(=O)N[C@@H](CCCCN)C(=O)N[C@@H](CC(=O)O)C(=O)O)C(C)C` [Peptide 3563.0028], the IC50 was determined as 657 nM at DPB1*02:01; 155 nM at DPB1*04:02; 1800 nM on DPB1*14:01; 78 nM on DPB1*04:01; 124 nM on DQB1*05:01; 1460 nM on DQB1*06:02. For the same molecule, at DRB5*01:01, the IC50 came out at 14 nM.
Regarding ovalbumin, in the assay on atherosclerotic plaque, the “atherosclerotic plaque in the aortic root by serial sections” value is reported as “not” and the “atherosclerotic plaque in the whole aorta by en face staining” value is “not”.

The record behind these values is patent US12448433B2, “Human ApoB100 epitopes, methods and uses for modulating inflammatory responses, and treating adverse cardiovascular events, disease and atherosclerosis” (LA JOLLA INSTITUTE FOR ALLERGY AND IMMUNOLOGY, priority 2015, dated 2025).
